Reference: ChEMBL document CHEMBL1909046, “DrugMatrix in vitro pharmacology data”

Legend:
[1] = DRUGMATRIX: Sodium/nucleoside co-transporter radioligand binding (ligand: nitrobenzylthioinosine); assay type: cell membranes, Cavia porcellus, Dunkin-Hartley, Cerebral cortex, Membrane; details: Not Active = under 50% inhibition at 10 µM
[2] = target: Beta-3 adrenergic receptor (Homo sapiens, UniProt P13945); test: DRUGMATRIX: Adrenergic beta3 radioligand binding (ligand: [125I] Cyanopindolol); assay type: cell membranes, HEK293, Membrane; details: hek293; Not Active = under 50% inhibition at 10 µM
[3] = target: Sodium-dependent noradrenaline transporter (Homo sapiens, UniProt P23975); test: DRUGMATRIX: Norepinephrine Transporter radioligand binding (ligand: [125I] RTI-55); assay type: cell membranes, MDCK, Membrane; details: mdck; Not Active = under 50% inhibition at 10 µM
[4] = DRUGMATRIX: beta-Lactamase enzyme inhibition (substrate: Nitrocefin); parameters: species or system Bacillus cereus; details: Not Active = under 50% inhibition at 10 µM
[5] = target: 5-hydroxytryptamine receptor 2B (Homo sapiens, UniProt P41595); assay type: cell membranes, CHO-K1, Membrane; details: cho-k1; note: in other assays of this panel Not Active means under 50% inhibition at 10 µM
[6] = target: 5-hydroxytryptamine receptor 6 (Homo sapiens, UniProt P50406); assay type: cell membranes, HeLa, Membrane; details: hela; note: in other assays of this panel Not Active means under 50% inhibition at 10 µM
Thromboxane-A synthase = target: T1, Thromboxane-A synthase (Homo sapiens, UniProt P24557); test: biochemical; assay type: tissue-based, Platelet; details: platelet;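 note: enzyme inhibition assay with PGH2 supplied as substrate; in other assays of this panel Not Active means under 50% inhibition at 10 µM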
T1 sequence (P24557 whole entry): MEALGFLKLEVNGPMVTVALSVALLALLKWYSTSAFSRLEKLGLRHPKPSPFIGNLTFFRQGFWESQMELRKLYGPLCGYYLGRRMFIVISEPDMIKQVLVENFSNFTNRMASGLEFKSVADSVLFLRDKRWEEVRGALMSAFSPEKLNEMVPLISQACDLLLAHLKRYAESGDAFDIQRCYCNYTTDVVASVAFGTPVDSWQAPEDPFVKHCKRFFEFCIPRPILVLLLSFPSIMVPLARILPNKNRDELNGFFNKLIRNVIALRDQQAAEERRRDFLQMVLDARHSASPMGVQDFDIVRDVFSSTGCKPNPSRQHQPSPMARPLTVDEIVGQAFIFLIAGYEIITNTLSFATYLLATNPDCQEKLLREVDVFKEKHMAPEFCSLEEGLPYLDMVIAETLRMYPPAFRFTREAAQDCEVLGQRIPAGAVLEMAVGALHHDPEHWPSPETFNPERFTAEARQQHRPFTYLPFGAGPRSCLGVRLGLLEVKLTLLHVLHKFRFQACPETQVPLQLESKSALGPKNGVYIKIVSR

[7] = target: T2, C-X-C chemokine receptor type 1 (Homo sapiens, UniProt P25024); note: in other assays of this panel Not Active means under 50% inhibition at 10 µM
T2 sequence (P25024 whole entry): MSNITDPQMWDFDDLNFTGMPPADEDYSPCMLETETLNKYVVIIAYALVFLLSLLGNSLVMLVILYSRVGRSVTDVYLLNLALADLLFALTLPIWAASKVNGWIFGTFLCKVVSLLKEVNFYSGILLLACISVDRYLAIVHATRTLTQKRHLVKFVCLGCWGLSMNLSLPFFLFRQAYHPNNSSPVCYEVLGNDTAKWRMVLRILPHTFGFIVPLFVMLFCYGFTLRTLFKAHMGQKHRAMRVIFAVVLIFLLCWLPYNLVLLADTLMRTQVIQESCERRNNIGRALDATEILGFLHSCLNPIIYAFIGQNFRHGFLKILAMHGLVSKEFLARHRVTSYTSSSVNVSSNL

D(3) dopamine receptor = D(3) dopamine receptor (Homo sapiens, UniProt P35462); test: DRUGMATRIX: Dopamine D3 radioligand binding (ligand: [3H] Spiperone); assay type: cell membranes, CHO, Membrane; details: cho
D(4) dopamine receptor = target: T3, D(4) dopamine receptor (Homo sapiens, UniProt P21917); test: DRUGMATRIX: Dopamine D4.2 radioligand binding (ligand: [3H] Spiperone); assay type: cell membranes, CHO-K1, Membrane; details: cho-k1; Not Active = under 50% inhibition at 10 µM
T3 sequence (P21917 whole entry): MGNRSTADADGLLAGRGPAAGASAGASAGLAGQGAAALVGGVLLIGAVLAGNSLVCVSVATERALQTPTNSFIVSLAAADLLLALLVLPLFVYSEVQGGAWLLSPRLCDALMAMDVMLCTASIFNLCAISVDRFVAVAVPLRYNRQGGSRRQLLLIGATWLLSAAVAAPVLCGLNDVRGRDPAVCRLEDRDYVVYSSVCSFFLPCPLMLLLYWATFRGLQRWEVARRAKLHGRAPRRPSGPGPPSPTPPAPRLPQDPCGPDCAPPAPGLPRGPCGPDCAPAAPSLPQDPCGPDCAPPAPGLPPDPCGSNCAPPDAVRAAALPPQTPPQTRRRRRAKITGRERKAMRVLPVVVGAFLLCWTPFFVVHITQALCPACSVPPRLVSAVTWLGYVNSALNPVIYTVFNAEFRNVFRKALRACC

[8] = DRUGMATRIX: GABAA, Chloride Channel, TBOB radioligand binding (ligand: [3H] TBOB); assay type: cell membranes, Rattus norvegicus, Wistar, Cerebral cortex, Membrane; details: Not Active = under 50% inhibition at 10 µM
[9] = DRUGMATRIX: Glutamate, AMPA radioligand binding (ligand: [3H] AMPA); assay type: cell membranes, Rattus norvegicus, Wistar, Cerebral cortex, Membrane; details: Not Active = under 50% inhibition at 10 µM
[10] = DRUGMATRIX: Glutamate, Kainate radioligand binding (ligand: [3H] Kainic acid); assay type: cell membranes, Rattus norvegicus, Wistar, Brain, Membrane; details: Not Active = under 50% inhibition at 10 µM
Glycine receptor = Glycine receptor (Rattus norvegicus, UniProt P22771+P24524+P07727+P20781); assay type: cell membranes, Wistar, Spinal cord, Membrane; note: in other assays of this panel Not Active means under 50% inhibition at 10 µM
Histamine H2 receptor = Histamine H2 receptor (Homo sapiens, UniProt P25021); assay type: cell membranes, CHO-K1, Membrane; details: cho-k1; note: in other assays of this panel Not Active means under 50% inhibition at 10 µM
[11] = DRUGMATRIX: Imidazoline I2, Central radioligand binding (ligand: [3H] Idazoxan); assay type: cell membranes, Rattus norvegicus, Wistar, Cerebral cortex, Membrane; details: Not Active = under 50% inhibition at 10 µM
[12] = DRUGMATRIX: Platelet-Derived Growth Factor (PDGF) radioligand binding (ligand: [125I] PDGF); assay type: cell-based; details: nih3t3; Not Active = under 50% inhibition at 10 µM

Sequence of D(3) dopamine receptor (P35462 whole entry): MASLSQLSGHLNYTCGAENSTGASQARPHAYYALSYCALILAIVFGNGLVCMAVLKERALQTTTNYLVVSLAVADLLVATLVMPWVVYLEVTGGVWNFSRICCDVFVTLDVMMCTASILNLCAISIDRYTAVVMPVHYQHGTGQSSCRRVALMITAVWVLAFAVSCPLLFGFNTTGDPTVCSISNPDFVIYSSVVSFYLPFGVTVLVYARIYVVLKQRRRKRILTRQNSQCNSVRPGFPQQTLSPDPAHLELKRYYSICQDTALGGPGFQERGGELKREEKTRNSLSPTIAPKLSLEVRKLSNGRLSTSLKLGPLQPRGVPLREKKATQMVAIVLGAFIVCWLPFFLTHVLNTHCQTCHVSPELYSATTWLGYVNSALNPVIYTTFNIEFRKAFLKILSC
Sequence of 5-hydroxytryptamine receptor 6 (P50406 whole entry): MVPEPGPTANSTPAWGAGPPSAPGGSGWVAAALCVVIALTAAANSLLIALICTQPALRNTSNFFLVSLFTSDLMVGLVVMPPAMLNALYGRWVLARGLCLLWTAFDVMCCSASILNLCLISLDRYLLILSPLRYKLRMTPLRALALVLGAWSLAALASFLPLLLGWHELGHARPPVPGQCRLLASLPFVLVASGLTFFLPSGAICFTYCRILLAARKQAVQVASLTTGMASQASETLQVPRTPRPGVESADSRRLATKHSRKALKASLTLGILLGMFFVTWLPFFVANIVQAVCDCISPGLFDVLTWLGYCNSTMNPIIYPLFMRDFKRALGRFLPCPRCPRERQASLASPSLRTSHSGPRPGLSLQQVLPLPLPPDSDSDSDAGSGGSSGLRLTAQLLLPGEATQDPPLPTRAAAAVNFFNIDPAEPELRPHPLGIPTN
Sequence of 5-hydroxytryptamine receptor 2B (P41595 whole entry): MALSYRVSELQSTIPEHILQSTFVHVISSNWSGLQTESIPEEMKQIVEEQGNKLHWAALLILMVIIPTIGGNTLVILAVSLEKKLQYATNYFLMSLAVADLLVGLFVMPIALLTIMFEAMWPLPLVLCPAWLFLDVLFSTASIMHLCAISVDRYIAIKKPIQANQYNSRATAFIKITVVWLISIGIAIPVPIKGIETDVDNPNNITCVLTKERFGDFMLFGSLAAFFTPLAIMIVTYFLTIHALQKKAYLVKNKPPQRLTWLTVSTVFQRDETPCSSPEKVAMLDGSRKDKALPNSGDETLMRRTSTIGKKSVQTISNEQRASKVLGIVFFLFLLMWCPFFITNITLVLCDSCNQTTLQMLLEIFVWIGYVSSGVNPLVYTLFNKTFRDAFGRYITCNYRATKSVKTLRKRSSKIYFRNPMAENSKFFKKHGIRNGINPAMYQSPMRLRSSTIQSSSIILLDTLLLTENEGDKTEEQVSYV
Sequence of Sodium-dependent noradrenaline transporter (P23975 whole entry): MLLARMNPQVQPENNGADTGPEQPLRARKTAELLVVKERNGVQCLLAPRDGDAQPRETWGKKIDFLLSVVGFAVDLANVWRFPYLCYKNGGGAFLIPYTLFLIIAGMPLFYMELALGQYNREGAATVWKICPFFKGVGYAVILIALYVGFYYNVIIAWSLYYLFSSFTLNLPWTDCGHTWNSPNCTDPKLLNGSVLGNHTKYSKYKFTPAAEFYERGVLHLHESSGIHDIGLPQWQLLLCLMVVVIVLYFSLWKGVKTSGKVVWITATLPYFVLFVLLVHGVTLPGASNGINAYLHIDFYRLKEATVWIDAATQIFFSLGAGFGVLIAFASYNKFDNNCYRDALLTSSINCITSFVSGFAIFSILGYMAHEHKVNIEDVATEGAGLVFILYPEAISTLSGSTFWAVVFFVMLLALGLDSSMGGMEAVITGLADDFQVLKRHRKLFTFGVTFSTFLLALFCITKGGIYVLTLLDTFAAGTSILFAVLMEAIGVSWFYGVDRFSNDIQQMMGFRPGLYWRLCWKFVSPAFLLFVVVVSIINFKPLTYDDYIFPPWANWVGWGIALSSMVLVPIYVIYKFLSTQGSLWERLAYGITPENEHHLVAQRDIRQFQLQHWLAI
Sequence of Histamine H2 receptor (P25021 whole entry): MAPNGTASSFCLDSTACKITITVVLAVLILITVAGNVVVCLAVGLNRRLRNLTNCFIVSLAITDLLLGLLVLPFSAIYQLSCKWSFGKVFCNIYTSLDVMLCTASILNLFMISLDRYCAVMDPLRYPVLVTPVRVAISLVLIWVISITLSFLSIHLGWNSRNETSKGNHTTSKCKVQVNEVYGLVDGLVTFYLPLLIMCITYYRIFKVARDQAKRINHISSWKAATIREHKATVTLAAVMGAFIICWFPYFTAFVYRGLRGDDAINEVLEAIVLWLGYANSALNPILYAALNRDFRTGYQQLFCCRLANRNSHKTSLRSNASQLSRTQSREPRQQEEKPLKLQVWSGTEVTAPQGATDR
Sequence of Beta-3 adrenergic receptor (P13945 whole entry): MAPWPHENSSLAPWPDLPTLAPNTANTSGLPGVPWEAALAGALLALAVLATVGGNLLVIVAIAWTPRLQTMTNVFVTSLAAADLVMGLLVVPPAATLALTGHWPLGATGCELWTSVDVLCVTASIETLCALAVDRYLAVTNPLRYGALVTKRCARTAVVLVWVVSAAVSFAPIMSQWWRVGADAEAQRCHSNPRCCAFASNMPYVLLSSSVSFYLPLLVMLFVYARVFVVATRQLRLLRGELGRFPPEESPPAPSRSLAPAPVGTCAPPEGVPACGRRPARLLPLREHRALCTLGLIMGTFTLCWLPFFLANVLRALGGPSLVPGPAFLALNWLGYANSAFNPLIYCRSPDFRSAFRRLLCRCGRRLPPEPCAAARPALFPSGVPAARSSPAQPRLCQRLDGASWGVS

CC(C)n1c(/C=C/C(O)CC(O)CC(=O)O)c(-c2ccc(F)cc2)c2ccccc21 (stereo not given) [FLUVASTATIN]
Not Active: IC50 [1] | Ki [1] | IC50 [2] | IC50 [3] | IC50 [4] | Ki [4] | IC50 [5] | IC50 [6] | IC50 (Thromboxane-A synthase) | IC50 [7] | IC50 (D(3) dopamine receptor) | IC50 (D(4) dopamine receptor) | IC50 [8] | Ki [8] | IC50 [9] | Ki [9] | IC50 [10] | Ki [10] | IC50 (Glycine receptor) | IC50 (Histamine H2 receptor) | IC50 [11] | Ki [11] | IC50 [12] | Ki [12]

O=C1OCCN1/N=C/c1ccc([N+](=O)[O-])o1 [FURAZOLIDONE]
Not Active: IC50 [1] | Ki [1] | IC50 [2] | IC50 [3] | IC50 [4] | Ki [4] | IC50 [5] | IC50 [6] | IC50 (Thromboxane-A synthase) | IC50 [7] | IC50 (D(3) dopamine receptor) | IC50 (D(4) dopamine receptor) | IC50 [8] | Ki [8] | IC50 [9] | Ki [9] | IC50 [10] | Ki [10] | IC50 (Glycine receptor) | IC50 (Histamine H2 receptor) | IC50 [11] | Ki [11] | IC50 [12] | Ki [12]

NCC1(CC(=O)O)CCCCC1 [GABAPENTIN]
Not Active: IC50 [1] | Ki [1] | IC50 [2] | IC50 [3] | IC50 [4] | Ki [4] | IC50 [5] | IC50 [6] | IC50 (Thromboxane-A synthase) | IC50 [7] | IC50 (D(3) dopamine receptor) | IC50 (D(4) dopamine receptor) | IC50 [8] | Ki [8] | IC50 [9] | Ki [9] | IC50 [10] | Ki [10] | IC50 (Glycine receptor) | IC50 (Histamine H2 receptor) | IC50 [11] | Ki [11] | IC50 [12] | Ki [12]

CC[N+](CC)(CC)CCOc1cccc(OCC[N+](CC)(CC)CC)c1OCC[N+](CC)(CC)CC.[I-].[I-].[I-] [GALLAMINE TRIETHIODIDE]
Not Active: IC50 [1] | Ki [1] | IC50 [2] | IC50 [3] | IC50 [4] | Ki [4] | IC50 [5] | IC50 [6] | IC50 (Thromboxane-A synthase) | IC50 [7] | IC50 (D(3) dopamine receptor) | IC50 (D(4) dopamine receptor) | IC50 [8] | Ki [8] | IC50 [9] | Ki [9] | IC50 [10] | Ki [10] | IC50 (Glycine receptor) | IC50 (Histamine H2 receptor) | IC50 [11] | Ki [11] | IC50 [12] | Ki [12]

COc1c(N2CCNC(C)C2)c(F)cc2c(=O)c(C(=O)O)cn(C3CC3)c12 (stereo not given) [GATIFLOXACIN]
Not Active: IC50 [1] | Ki [1] | IC50 [2] | IC50 [3] | IC50 [4] | Ki [4] | IC50 [5] | IC50 [6] | IC50 (Thromboxane-A synthase) | IC50 [7] | IC50 (D(3) dopamine receptor) | IC50 (D(4) dopamine receptor) | IC50 [8] | Ki [8] | IC50 [9] | Ki [9] | IC50 [10] | Ki [10] | IC50 (Glycine receptor) | IC50 (Histamine H2 receptor) | IC50 [11] | Ki [11] | IC50 [12] | Ki [12]
